Assay results published in patent US9771369B2, “Compounds and methods for kinase modulation, and indications therefor” (Plexxikon Inc., priority 2014, dated 2017).

What was measured:
c-Kit kinase = c-Kit kinase (Homo sapiens (Human), UniProt P10721); experiment: c-Kit biochemical assay (AlphaScreen kinase activity)
In short: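 IC50 values come from 8-point, 1:3 compound titrations measuring inhibition of peptide phosphorylation by c-Kit (commercial or His-tagged E. coli-expressed) over 1 h at room temperature, read by AlphaScreen PY30/streptavidin beads. Low-ATP version: 10 μM ATP, 100 nM biotin-(E4Y)3; high-ATP version: 100 μM ATP, 30 nM biotin-(E4Y)10.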

[1] = tested on: BaF3-FL KIT D816V or BaF3-FL KIT V560G/D816V cell line; experiment: Cell-based assays of c-Kit mutant kinase activity (cell proliferation, ATPlite); conditions: at least one of the c-kit cell assays of Example 7
In short: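 BaF3 cells dependent on transfected full-length human KIT D816V or V560G/D816V (pCI-Neo, CMV promoter) were seeded at 1×10^4 cells/well and exposed to 8-point 1:3 dilutions from 10 μM top (0.2% DMSO) for three days at 37° C. ATPlite luminescence gave cell number; IC50 from concentration-response.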

Chain of c-Kit kinase (P10721 26-976): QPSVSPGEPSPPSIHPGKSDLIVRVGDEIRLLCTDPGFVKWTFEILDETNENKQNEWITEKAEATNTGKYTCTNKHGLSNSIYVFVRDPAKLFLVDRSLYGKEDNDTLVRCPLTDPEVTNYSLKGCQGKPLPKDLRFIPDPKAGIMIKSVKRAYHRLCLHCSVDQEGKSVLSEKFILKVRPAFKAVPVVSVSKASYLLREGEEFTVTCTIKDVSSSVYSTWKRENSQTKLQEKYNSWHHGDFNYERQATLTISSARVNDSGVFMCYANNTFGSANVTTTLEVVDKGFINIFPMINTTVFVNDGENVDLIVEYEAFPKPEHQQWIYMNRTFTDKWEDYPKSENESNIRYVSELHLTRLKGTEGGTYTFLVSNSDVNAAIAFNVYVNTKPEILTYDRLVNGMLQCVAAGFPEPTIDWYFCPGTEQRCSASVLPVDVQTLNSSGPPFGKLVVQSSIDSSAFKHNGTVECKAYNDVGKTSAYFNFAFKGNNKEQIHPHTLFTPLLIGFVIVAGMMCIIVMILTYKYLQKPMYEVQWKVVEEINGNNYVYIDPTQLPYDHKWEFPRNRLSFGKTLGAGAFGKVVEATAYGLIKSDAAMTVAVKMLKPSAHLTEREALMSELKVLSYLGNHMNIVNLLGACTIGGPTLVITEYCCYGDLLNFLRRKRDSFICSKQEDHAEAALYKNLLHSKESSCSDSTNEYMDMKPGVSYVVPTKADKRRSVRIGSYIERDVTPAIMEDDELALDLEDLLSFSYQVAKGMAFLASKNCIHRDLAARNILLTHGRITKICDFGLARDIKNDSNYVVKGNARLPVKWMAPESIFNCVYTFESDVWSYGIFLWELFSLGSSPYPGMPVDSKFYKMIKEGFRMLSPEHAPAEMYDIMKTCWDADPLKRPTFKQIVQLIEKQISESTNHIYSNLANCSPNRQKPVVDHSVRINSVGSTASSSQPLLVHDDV

| SMILES | IC50 (c-Kit kinase) [µM] | IC50 [1] [µM] |
| --- | --- | --- |
| Cc1nc(C2CCN(c3ncnc4[nH]c(-c5ccc(F)cc5)cc34)CC2)[nH]c1-c1ccc(F)cc1 [P-3006, 6-(4-fluorophenyl)-4-[4-[5-(4-fluorophenyl)-4-methyl-1H-imidazol-2-yl]-1-piperidyl]-7H-pyrrolo[2,3-d]pyrimidine] | 0.0001 to 1 | < 10 |
| Cc1ccc(-c2[nH]c(C3CCN(c4ncnc5[nH]c(-c6ccc(C#N)cc6)cc45)CC3)nc2C)cc1 [P-3089, 4-[4-[4-[4-methyl-5-(p-tolyl)-1H-imidazol-2-yl]-1-piperidyl]-7H-pyrrolo[2,3-d]pyrimidin-6-yl]benzonitrile] | 0.0001 to 1 | < 10 |
| Cc1ccc(-c2[nH]c(C3CCN(c4ncnc5[nH]c(-c6ccc(C#N)cc6)cc45)CC3)nc2C)s1 [P-3090, 4-[4-[4-[4-methyl-5-(5-methyl-2-thienyl)-1H-imidazol-2-yl]-1-piperidyl]-7H-pyrrolo[2,3-d]pyrimidin-6-yl]benzonitrile] | 0.0001 to 1 | < 10 |
| COc1cc(-c2cc3c(N4CCC(c5nc(C)c(-c6ccc(OC(C)C)cc6)[nH]5)CC4)ncnc3[nH]2)ccn1 [P-3091, 4-[4-[5-(4-isopropoxyphenyl)-4-methyl-1H-imidazol-2-yl]-1-piperidyl]-6-(2-methoxy-4-pyridyl)-7H-pyrrolo[2,3-d]pyrimidine] | 0.0001 to 1 | < 10 |
| Cc1nc(C2CCN(c3ncnc4[nH]c(-c5ccc(F)cc5)cc34)CC2)[nH]c1-c1ccc(OC(C)C)cc1 [P-3092, 6-(4-fluorophenyl)-4-[4-[5-(4-isopropoxyphenyl)-4-methyl-1H-imidazol-2-yl]-1-piperidyl]-7H-pyrrolo[2,3-d]pyrimidine] | 0.0001 to 1 | < 10 |
| Cc1nc(C2CCN(c3ncnc4[nH]c(-c5ccc(C#N)cc5)cc34)CC2)[nH]c1-c1ccc(OC(C)C)cc1 [P-3093, 4-[4-[4-[5-(4-isopropoxyphenyl)-4-methyl-1H-imidazol-2-yl]-1-piperidyl]-7H-pyrrolo[2,3-d]pyrimidin-6-yl]benzonitrile] | 0.0001 to 1 | < 10 |
| CCOc1cc(-c2[nH]c(C3CCN(c4ncnc5[nH]c(-c6ccc(F)cc6)cc45)CC3)nc2C)ccc1C [P-3094, 4-[4-[5-(3-ethoxy-4-methyl-phenyl)-4-methyl-1H-imidazol-2-yl]-1-piperidyl]-6-(4-fluorophenyl)-7H-pyrrolo[2,3-d]pyrimidine] | 0.0001 to 1 | < 10 |
